Assays:
[1] = Log D7.4 measurements (octanol/PBS partition); type: physicochemical; settings: octanol/PBS pH 7.4
Description: Log D7.4 Measurements. Log D measurements were conducted in technical triplicate and 5 experimental replicates. Samples at a known concentration (n=3) were added to Eppendorf tubes containing PBS (pH=7.4, 500 μL) and octanol (500 μL). The Eppendorf tubes were each vortexed for 30 seconds and subsequently subjected to microcentrifuge for 1 minute. Then the PBS and octanol layers were pipetted into a clear 96-well plate. The absorbance values were taken using a SpectraMax M2 plate reader. The log of (dye absorbance in octanol/dye absorbance in PBS) was calculated and averaged across different concentrations to generate the log D7.4.

[2] = Photophysical characterization; type: physicochemical; settings: for ε / λabs / λem: 3:7 v/v MeCN:PBS (pH=7.4); for PABF: PA Brightness Factor; for Φ: relative to dimethoxy aza-BODIPY
Description: Photophysical Characterization. Extinction coefficients and fluorescence quantum yields were acquired in experimental triplicates. Extinction coefficients were measured by performing serial dilutions of the compounds in 3:7 v/v MeCN:PBS (pH=7.4) within the linear range (absorbance values between 0.05-1.5). Reported fluorescence quantum yields are relative quantum yields compared to dimethoxy aza-BODIPY (Φ=0.36, chloroform). The compounds were titrated into acetonitrile or 3:7 MeCN/PBS (pH=7.4) such that their absorbance values were kept below 0.1 to prevent secondary absorbance events. The refractive index of 3:7 v/v MeCN:PBS (pH=7.4) was measured to be 1.343. Characterization of mvpCu and t-mvpCu were conducted in 1:1 v/v DMF:HEPES (50 mM, pH=7.4).

[3] = chloroform; cited from earlier work
[4] = test system: A549 human lung cancer cells; assay: Cellular uptake studies (epifluorescence imaging); type: cell-based
Description: Cell Culture. A549 lung cancer cells and 4T1 murine breast cancer cells were acquired from ATCC. A549 cells were cultured in Ham's F-12K Medium containing 10% FBS and 1% penicillin streptomycin solution, and 4T1 cells were cultured in RPMI-1640 Medium containing 10% FBS and 1% penicillin streptomycin solution. Cells were incubated at 37° C. with 5% CO2. Experiments were performed in 8-well plates (Nuc Lab-Tek Chambered Coverglass, Thermo Scientific) or 96-well plates (Nuclon Delta Surface Flat Bottom, Thermo Scientific).
Cellular Uptake Studies. 8-well borosilicate plates were prepared with poly-L-Lysine coating and seeded with 50,000 cells per well and incubated at 37° C. with 5% CO2 for 24 hours (˜60% confluent). Serum-free media containing mvGlu-AB2 (2 μM), 15 mM Glucose, mvGlu-AB2 (2 μM)+15 mM Glucose, L-mvGlu-AB2 (2 μM), dimethoxy aza-BODIPY (2 μM), or vehicle (DMSO) were prepared. Competition glucose wells were preincubated with 15 mM glucose in serum-free media for 30 minutes. […] The media was removed and replaced with PBS. Cells were imaged using an EVOS FL epifluorescence microscope with a Cy7 filter cube. Four experimental replicates and 3 technical replicates were taken.
Quantification of Cell Imaging Data. In FIJI (ImageJ), ROIs were drawn around representative cells and the integrated density (area×mean gray value) was measured. The total cell fluorescence was calculated by subtracting the integrated density of the cell by the background integrated fluorescence. Technical replicates (n=3) in each well were quantified as the average of 3 cells. Values are reported as the average (+SD) of […] (n=4). Colocalization Studies with mvGlu-AB2. 8-well borosilicate plates were prepared with poly-L-Lysine coating and seeded with 45,000 cells per well and incubated at 37° C. with 5% CO2 for 24 hours (˜60% confluent). Serum-free media containing mvGlu-AB2 (1 μM) was prepared. Cells were incubated for 30 minutes with mvGlu-AB2. The cells were washed 1× with PBS and incubated with the relevant organelle tracker according to the manufacturer recommended protocol. Following incubation with tracker, the cells were washed 1× with PBS. Cells were imaged using an EVOS FL epifluorescence microscope. Lysotracker® Green and Mitotracker® Green were imaged using a GFP filter cube, DAPI was imaged using a DAPI filter cube, and mvGlu-AB2 was image with a Cy7 filter cube. Four experimental replicates and 3 technical replicates were taken.

[5] = test system: A549 cells; assay: MTT cytotoxicity assay; type: cell-based, human; settings: A549, up to 15 μM, 6-hour incubation
Description: (§1) MTT Cytotoxicity Assay. A 96-well plate was seeded with 30,000 cells per well and incubated at 37° C. with 5% CO2 for 24-48 hours (˜70% confluent). The media was removed and replaced with fresh serum-free medium (200 μL) containing vehicle control (DMSO) or dye (4, 6, 10, or 15 μM). After 4 hours, the media was removed and replaced with a 20:1 mixture of PBS and (3-(4,5-dimethylthiazol-2-yl)-2,5-diphenyl-tetrazolium bromide (MTT, 5 mg/mL stock in PBS). The cells were incubated for 2 hours under the same conditions, and then the media was removed, replaced with DMSO (200 μL), and the absorbance of each well was recorded at 555 nm on a SpectraMax M2 plate reader. Percent viability was calculated relative to the vehicle control (n=8).

[6] = test system: 4T1 cells; assay: MTT cytotoxicity assay; type: cell-based, murine; settings: 4T1, up to 15 μM, 6-hour incubation
Description: as §1

[7] = test system: 4T1 orthotopic breast cancer; assay: In vivo fluorescence imaging of tumor-bearing mice; set-up: species or system BALB/c mice; settings: for fluorescence signal enhancement of the tumor site relative to initial background scan: 1.2 mg/kg retroorbital
Description: In Vivo Imaging. Before all imaging, hair on the bottom half of mice were removed via an electric razor and depilatory cream. In both FL and PA imaging, a background scan was taken of each mouse before injection. For PA imaging experiments, mice were allowed to equilibrate in the water tank for 10 min, and all scans were collected on H2O mode at 34° C.
Fluorescence Imaging with mvGlu-AB2 and mvGlu-AB3. 4T1 cells were trypsinized, neutralized with growth media, and counted on a Countess II FL Cell Counter (Invitrogen, Thermo Fisher Scientific). Cells were spun down, media was aspirated, and a solution was made in 1:1 serum-free RPMI media to VitroGel® hydrogel. Mice were injected in the mammary fat pad with 300,000 cells (50 μL) of the cell solution. Tumors grew for around 1.5-2 weeks and the mice were imaged once tumors reached 100 mm^3. Dyes (1.2 mg/kg) were dissolved in 0.9% saline (5% DMSO) and injected retroorbitally. Mice were imaged using the CRi Maestro In-Vivo Fluorescence Imaging System at timepoints=0, 6, 8, 12, 16, 24, and 48 hours. Excitation occurred at 680 nm, and light was collected from 690-850 nm (n=3).

[8] = test system: 4T1 orthotopic breast cancer; assay: In vivo PA imaging with mvGlu-AB2; set-up: species or system BALB/c mice; settings: 6 hr, spectral unmixing
Description: In Vivo Imaging. Before all imaging, hair on the bottom half of mice were removed via an electric razor and depilatory cream. In both FL and PA imaging, a background scan was taken of each mouse before injection. For PA imaging experiments, mice were allowed to equilibrate in the water tank for 10 min, and all scans were collected on H2O mode at 34° C. PA Imaging with mvGlu-AB2. 4T1 cells were trypsinized, neutralized with growth media, and counted on a Countess II FL Cell Counter (Invitrogen, Thermo Fisher Scientific). Cells were spun down, media was aspirated, and a solution was made in 1:1 serum-free RPMI media to Geltrex™ LDEV-Free, hESC-Qualified, Reduced Growth Factor Basement Membrane Matrix. Mice were injected in the mammary fat pad with 250,000 cells (50 μL) of the cell solution. Tumors grew for around 1.5-2 weeks and the mice were imaged once tumors reached 100 mm^3. mvGluAB-2 was reconstituted in 0.9% saline (5% DMSO) and injected retroorbitally. PA images were taken at timepoints=0 and 6 hours in 5 nm increments from 660-700 nm. Images were spectrally unmixed from hemoglobin, deoxyhemoglobin, and melanin (n=4).

Compound | logD7.4 ([1]; Table 2) | logD7.4 [1] | extinction coefficient ε [2] | ε ([2]; Table 1b) | λabs ([2]; Table 1b) | λem ([2]; Table 1b) | PABF ([2]; Table 1b) | Φ ([2]; Table 1b) | ε ([2]; Table 2) | λabs ([2]; Table 2) | λem ([2]; Table 2) | PABF ([2]; Table 2) | Φ ([2]; Table 2) | further results
COc1ccc(C2=[N+]3C(=Nc4c(-c5ccccc5)cc(-c5ccc(OC)cc5)n4[B-]3(F)F)C(c3ccccc3)=C2)cc1 [AB-OMe2, reference compound] | 2.51 ± 0.92 | 2.51±0.92 | 3000 M⁻¹ cm⁻¹ | 3400 M/cm | 689 nm | 710 nm | 0.34 ×10^4 | 0.014 | 3400 M/cm | 689 nm | 710 nm | 0.34 × 10^4 | 0.014 | fluorescence quantum yield Φ of reference standard [3]: 0.36
COc1ccc(-c2cc(-c3ccccc3)c3n2[B-](OC)(OC)[N+]2=C(c4ccc(OCc5cn(C(COC6OC(CO)C(O)C(O)C6O)COC6OC(CO)C(O)C(O)C6O)nn5)cc4)C=C(c4ccccc4)C2=N3)cc1 (centres unmarked) [mvGlu-AB1] | 0.75 ± 0.02 | 0.75±0.02 | – | 18000 M/cm | 675 nm | 710 nm | 1.6 ×10^4 | 0.10 | 18000 M/cm | 675 nm | 710 nm | 1.6 × 10^4 | 0.10 | –
CO[B-]1(OC)n2c(-c3ccc(OCc4cn(C(COC5OC(CO)C(O)C(O)C5O)COC5OC(CO)C(O)C(O)C5O)nn4)cc3)cc(-c3ccccc3)c2N=C2C(c3ccccc3)=CC(c3ccc(OCc4cn(C(COC5OC(CO)C(O)C(O)C5O)COC5OC(CO)C(O)C(O)C5O)nn4)cc3)=[N+]21 (centres unmarked) [mvGlu-AB2] | −1.12 ± 0.16 | −1.12±0.16 | 26000 M⁻¹ cm⁻¹ | 26000 M/cm | 679 nm | 710 nm | 2.1 ×10^4 | 0.19 | 26000 M/cm | 679 nm | 710 nm | 2.1 × 10^4 | 0.19 | ε higher than AB-OMe2 ([2]; ratio to AB-OMe2): 8.7 fold; low dye concentration at which a clear fluorescent signature was apparent ([4]; A549): 50 nM; brighter than cells treated with l-mvGlu isomer ([4]; A549, 2 μM): 3 fold; signal intensity higher when glucose was absent ([4]; A549, dye 2 μM, vs pre-incubation with glucose 15 mM): 2 fold; fluorescence signal intensity brighter than AB-OMe2-treated cells ([4]; A549, imaged after 20 minutes): > 1000 fold; cell viability (MTT) [5]: no loss in cell viability; cell viability (MTT) [6]: no loss in cell viability; fluorescence signal enhancement of the tumor site relative to initial background scan ([7]; after 8 hours): ~2 fold; PA signal difference of tumor prior to and after injection [8]: 4.1 fold
COc1ccc(C2=[N+]3C(=Nc4c(-c5ccc(OCc6cn(C(COC7OC(CO)C(O)C(O)C7O)COC7OC(CO)C(O)C(O)C7O)nn6)cc5)cc(-c5ccc(OC)cc5)n4[B-]3(OC)OC)C(c3ccc(OCc4cn(C(COC5OC(CO)C(O)C(O)C5O)COC5OC(CO)C(O)C(O)C5O)nn4)cc3)=C2)cc1 (centres unmarked) [mvGlu-AB3] | −0.71 ± 0.11 | −0.71±0.11 | – | 24000 M/cm | 681 nm | 712 nm | 1.7 ×10^4 | 0.31 | 24000 M/cm | 681 nm | 712 nm | 1.7 × 10^4 | 0.31 | in vivo imaging results compared with mvGlu-AB2 ([7]; FIGS. 17-18): comparable; fluorescence signal enhancement of the tumor site relative to initial background scan ([7]; after 12 hours): ~2 fold
